Consider one molecule from US20090004166A1, “Carrier For Enternal Administration” (priority 2004, published 2009).

For this assay, the system named is Sprague-Dawley rats. The conditions noted are these: oral gavage, 5 mg/kg, heat source ~45° C.

Description: The effect was measured by comparison of times taken for a rat to withdraw its paw in response to heat when medicated and unmedicated with morphine.
Animals: Nine conscious Sprague-Dawley rats weighing between 350-450 grams each Treatment groups: • 1. […] Morphine with TPm: morphine HCl (14%) in a carrier containing water (59%) and a tocopheryl phosphate mixture (27%) (TPm). The TPm contained mono-tocopheryl phosphate and di-tocopheryl phosphate.
Formulations 2 and 3 were diluted with water and the final morphine concentration was made up to 5 mg/ml. […] This liquid formulation was then delivered to the animals by oral gavage (tube into stomach).
The experiment used nine rats that were divided into three groups. […]
Analgesic testing was performed at 1, 2, 4 and 6 hours and at each time point withdrawal latency was measured three times on each rat (with at least five minutes rest if using the same paw).
A plantar analgesiometer designed for rapid and efficient screening of analgesia levels in small laboratory animals was used. The device applied a heat source (˜45° C. from an infrared light) to the animal's hindpaw and the time taken to withdraw the paw from the heat source was measured (paw withdrawal latency). […] The animal was placed on a hot plate, confined by a clear acrylic cage which surrounds the plate and paw withdrawal response was monitored. […]

Regarding `CN1CC[C@]23c4c5ccc(O)c4O[C@H]2[C@@H](O)C=C[C@H]3[C@H]1C5.O=S(=O)(O)O` [morphine sulphate], the “paw withdrawal latency (analgesia)” value was “increase in latency”.
